Numbered stars: 1 amine (or outer) side, 2 acyl side, 3 side chain; on linkers, the order of the positions; unused ones are H or OH. Square brackets hold non-standard residues; d marks the D form. Ends that are not written are not given here. εLys = N[C@@H](CCCCN[*:1])C(=O)[*:2]; D‑k∗gc = not defined here; K∗GC = not defined here; Ahx = NCCCCCC(=O)O
How the values were obtained:
[1] = test system: human Jurkat leukemia cells; test: Cell accumulation (uptake) of Tc-99m-Tat-peptide complexes in Jurkat cells; type: cell-based; conditions: for 20 min Uptake: [99mTc] complexes, 37° C.; for U/W Ratio: uptake/washout ratio; for effect of inhibitor on net cell uptake of the Tat-peptide metal complex: colchicine 100 ng/ml, taxol 1 μM, nocodozole 5 μg/ml, cytochalasin D 1 μM, brefeldin A 2.5 μg/ml, wortmannin 100 nM; for Jurkat Cell Uptake: Table 2, radiolabeled (99mTc) peptides, net cell uptake
Description: Control solution for cell uptake experiments was a modified Earle's balanced salt solution (MEBSS) containing (mM): 145 Na^+, 5.4 K^+, 1.2 Ca^2+, 0.8 Mg^2+, 152 Cl^−, 0.8 H2PO4^−, 0.8 SO4^2−, 5.6 dextrose, 4.0 HEPES, and 1% bovine calf serum (vol/vol), pH 7.4±0.05. A 130 mM K^+/20 mM Cl^− solution was made by equimolar substitution of potassium methanesulfonate for NaCl as described by Piwnica-Worms et al. (J. Gen. Physiol., 81:731-748, 1983).
(§1) Characterization of accumulation of Tc-99m-peptide complex was also performed for nonadherent cell lines such as human Jurkat leukemia cells with minor modifications of methods described in the literature (Bosch et al., Leukemia, 11: 1131-1137, 1997). Transport experiments were performed in siliconized microfuge tubes and initiated by addition of 732.5 μl of cells at 2-3×10^6 cells/ml to 10 μl of buffer containing Tc-99m-peptide complex and 7.5 μl of vehicle alone or of any added drug in vehicle at 100-fold the desired concentration. The tubes were incubated in a 37° C. water bath with occasional mixing. The reaction was terminated by centrifuging 250 μl aliquots from the reaction for 10 seconds through 800 μl of a 75:25 mixture of silicon oil, density=1.050 (Aldrich) and mineral oil, density=0.875 (Acros). An aliquot of the aqueous phase was obtained to normalize extracellular concentration of the complex to cell-associated activity, then the oil and aqueous phases were aspirated and the cell pellet extracted in 0.5 ml of 1% SDS, 10 mM sodium borate. For tracer washout experiments, cells were first incubated to plateau uptake (10 min) in loading buffer (37° C.), collected by rapid centrifugation and the pellet resuspended in 50 ml MEBSS (4° C.) to clear extracellular tracer. Following another rapid spin, the cell pellet was resuspended in isotope-free MEBSS (37° C.) and the experiment terminated as above after various times in warm washout buffer. Radioactivity of the cell pellet, buffers and stocks were determined on a gamma counter (Cobra II, 130-165 keV window) and cell protein was determined by the BCA assay (Pierce). Transport data are reported as fmol Tc-complex (mg protein)^−1 (nM0)^− as previously described, with (nM0)^−1 representing total concentration of peptide conjugate in the extracellular buffer (Piwnica-Worms et al., Circulation, 82: 1826-1838, 1990).
Kinetic experiments of [^99mTc]D-Tat-peptide complexes were performed in Jurkat leukemia cells suspended in MEBSS with minor modification of the methods described in Example 6. Transport experiments were performed in siliconized microfuge tubes and initiated by addition of 732.5 μl of cells at 2-3×10^6 cells/ml to 10 μl of MEBSS containing [^99mTc]D-Tat-peptide complex and 7.5 μl of vehicle alone or of any added drug in vehicle at 100 fold the desired concentration. Unless stated otherwise, [^99mTc]D-Tat-peptide complex was added to MEBSS accompanied by a molar excess of unlabeled D-Tat-peptide as obtained directly from the labeling procedure. The final total peptide concentration was 7 nM to 8 μM (1-2 μCi/ml). The tube were incubated at 37° C. and the reaction terminated as previously described. For peptide washout experiments, cells were first incubated to plateau uptake (20 minutes) in MEBSS loading buffer at 37° C., collected by rapid centrifugation and the pellet resuspended in 50 ml of isotope-free MEBSS at 4° C. to clear extracellular tracer. Following another rapid spin, the cell pellet was resuspended in isotope-free MEBSS at 37° C. for various times and the reaction terminated as described previously. Protein assays and determination of gamma activity were as described in Example 6. Absolute concentration of total [Tc]Tat-peptide complex in solution was determined from the specific activity of Tc, based on equations of Mo/Tc generator equilibrium (Lamson et al., J. Nucl. Med., 16:639-641, 1975). […]

[2] = test system: human Jurkat leukemia cells; test: Washout of Tc-99m-Tat-peptide complexes from preloaded Jurkat cells; type: cell-based; conditions: for 30 min Washout: residual activity remaining within the cell 30 minutes after a wash in isotope-free buffer
Description: as §1
Kinetic experiments of [^99mTc]D-Tat-peptide complexes were performed in Jurkat leukemia cells suspended in MEBSS with minor modification of the methods described in Example 6. Transport experiments were performed in siliconized microfuge tubes and initiated by addition of 732.5 μl of cells at 2-3×10^6 cells/ml to 10 μl of MEBSS containing [^99mTc]D-Tat-peptide complex and 7.5 μl of vehicle alone or of any added drug in vehicle at 100 fold the desired concentration. Unless stated otherwise, [^99mTc]D-Tat-peptide complex was added to MEBSS accompanied by a molar excess of unlabeled D-Tat-peptide as obtained directly from the labeling procedure. The final total peptide concentration was 7 nM to 8 μM (1-2 μCi/ml). The tube were incubated at 37° C. and the reaction terminated as previously described. For peptide washout experiments, cells were first incubated to plateau uptake (20 minutes) in MEBSS loading buffer at 37° C., collected by rapid centrifugation and the pellet resuspended in 50 ml of isotope-free MEBSS at 4° C. to clear extracellular tracer. Following another rapid spin, the cell pellet was resuspended in isotope-free MEBSS at 37° C. for various times and the reaction terminated as described previously. Protein assays and determination of gamma activity were as described in Example 6. Absolute concentration of total [Tc]Tat-peptide complex in solution was determined from the specific activity of Tc, based on equations of Mo/Tc generator equilibrium (Lamson et al., J. Nucl. Med., 16:639-641, 1975). Transport data are reported as pmol of peptidei (mg protein)^−1 (μM0)^−1, wherein peptidei represents total peptide conjugate within the cells and (nM0)^−1 represents concentration of total peptide conjugate in the extracellular buffer.

Which “20 min Uptake” value ([1]; Jurkat cells) does the source give for “acetyl-GRKKRRQRRR-GDEVDG-εKGC-amide (Ac-GRKKRRQRRRGDEVDG[εLys]GC-NH2; SMILES CC(=O)NCC(=O)N[C@@H](CCCNC(=N)N)C(=O)N[C@@H](CCCCN)C(=O)N[C@@H](CCCCN)C(=O)N[C@@H](CCCNC(=N)N)C(=O)N[C@@H](CCCNC(=N)N)C(=O)N[C@@H](CCC(N)=O)C(=O)N[C@@H](CCCNC(=N)N)C(=O)N[C@@H](CCCNC(=N)N)C(=O)N[C@@H](CCCNC(=N)N)C(=O)NCC(=O)N[C@@H](CC(=O)O)C(=O)N[C@@H](CCC(=O)O)C(=O)N[C@H](C(=O)N[C@@H](CC(=O)O)C(=O)NCC(=O)NCCCC[C@H](N)C(=O)NCC(=O)N[C@@H](CS)C(N)=O)C(C)C) [Example 8]” here?
Its value is 317.92 pmol (mg protein)^−1 (μM0)^−1.

What about the “U/W Ratio” value ([1]; Jurkat cells) of the same compound?
Its value is 6.2.

And the “30 min Washout” value [2]?
Its value is 50.87 pmol (mg protein)^−1 (μM0)^−1.

For COC[C@H]1OC(=O)c2coc3c2[C@@]1(C)C1=C(C3=O)[C@@H]2CCC(=O)[C@@]2(C)C[C@H]1OC(C)=O [wortmannin, reference compound], which “effect of inhibitor on net cell uptake of the Tat-peptide metal complex” value (“effect of inhibitor” for short) ([1]; Jurkat cells, data not shown) is on record?
Its value is “no significant effect”.

With CC(=O)O[C@H]1C(=O)[C@@]2(C)[C@H]([C@H](OC(=O)c3ccccc3)[C@]3(O)C[C@H](OC(=O)[C@H](O)[C@@H](NC(=O)c4ccccc4)c4ccccc4)C(C)=C1C3(C)C)[C@]1(OC(C)=O)CO[C@@H]1C[C@@H]2O [taxol, reference compound] as the compound, how does the “effect of inhibitor” value ([1]; Jurkat cells, data not shown) read?
The value was “no significant effect”.

Which “effect of inhibitor” value ([1]; Jurkat cells, data not shown) does the source give for COC(=O)Nc1nc2ccc(C(=O)c3cccs3)cc2n1C [nocodozole, reference compound] here?
The value was “no significant effect”.

What does the source list for “Acetyl- GRKKRRQRRR-AHA- εKGC-amide [Conjugate 1]”?
20 min Uptake ([1]; Jurkat cells): 77.93 pmol (mg protein)^−1 (μM0)^−1; U/W Ratio ([1]; Jurkat cells): 3.2; 30 min Washout [2]: 24.26 pmol (mg protein)^−1 (μM0)^−1

With “28 (Ac-RRRRRRR-{Ahx-D‑k∗gc-NH2}; reading uncertain) [Conjugate 28]” as the compound, how does the “Jurkat Cell Uptake” value ([1]; Jurkat cells) read?
The value was 34.73 ± 6.99 pmol (mg protein)^−1 (μM0)^−1.

Which “effect of inhibitor” value ([1]; Jurkat cells, data not shown) does the source give for COc1cc2c(c(OC)c1OC)-c1ccc(OC)c(=O)cc1[C@@H](NC(C)=O)CC2 [Colchicine, reference compound] here?
Its value is “no significant effect”.

With “4d (Ac-RKKRRQRRR-{Ahx-K∗GC-NH2}; reading uncertain) [Conjugate 4d]” as the compound, how does the “Jurkat Cell Uptake” value ([1]; Jurkat cells) read?
The value was 90.75 ± 41.04 pmol (mg protein)^−1 (μM0)^−1.

How did the “Jurkat Cell Uptake” value ([1]; Jurkat cells) turn out when “8h (RKKRRQRRR-{Ahx-D‑k∗gc-NH2}; reading uncertain) [Conjugate 8h]” was run?
The value was 64.35 ± 1.63 pmol (mg protein)^−1 (μM0)^−1.

For “5e (Ac-RKKRRQRRR-{Ahx-D‑k∗gc-NH2}; reading uncertain) [Conjugate 5e]”, which “Jurkat Cell Uptake” value ([1]; Jurkat cells) is on record?
Its value is 48.81 ± 2.91 pmol (mg protein)^−1 (μM0)^−1.

With “1a (GRKKRRQRRR; acetyl; AHA-K*GC chelator, amide) [Conjugate 1a]” as the compound, how does the “Jurkat Cell Uptake” value ([1]; Jurkat cells) read?
The value was 92.90 ± 21.17 pmol (mg protein)^−1 (μM0)^−1.

Which “Jurkat Cell Uptake” value ([1]; Jurkat cells) does the source give for “30 (Ac-RRRRRRRR-{Ahx-D‑k∗gc-NH2}; reading uncertain) [Conjugate 30]” here?
Its value is 59.02 ± 5.52 pmol (mg protein)^−1 (μM0)^−1.

For C[C@H]1CCC/C=C/[C@@H]2C[C@H](O)C[C@H]2[C@H](O)/C=C/C(=O)O1 [brefeldin A, reference compound], which “effect of inhibitor” value ([1]; Jurkat cells, data not shown) is on record?
Its value is “no significant effect”.

For “32 (Ac-RRRRRRRRR-{Ahx-D‑k∗gc-NH2}; reading uncertain) [Conjugate 32]”, which “Jurkat Cell Uptake” value ([1]; Jurkat cells) is on record?
The value was 129.11 ± 69.01 pmol (mg protein)^−1 (μM0)^−1.

With “10j (GRKKRRQRRR; AHA linker, D-k*gc chelator, amide) [Conjugate 10j]” as the compound, how does the “Jurkat Cell Uptake” value ([1]; Jurkat cells) read?
The value was 106.96 ± 1.55 pmol (mg protein)^−1 (μM0)^−1.

With C=C1[C@@H](C)[C@H]2[C@H](Cc3ccccc3)NC(=O)[C@]23[C@H](OC(C)=O)/C=C/[C@@](C)(O)C(=O)[C@@H](C)C/C=C/[C@H]3[C@@H]1O [cytochalasin D, reference compound] as the compound, how does the “effect of inhibitor” value ([1]; Jurkat cells, data not shown) read?
The value was “no significant effect”.

“2b (GRKKRRQRRR; acetyl; AHA-D-k*gc chelator, amide) [Conjugate 2b]” was tested. Which “Jurkat Cell Uptake” value ([1]; Jurkat cells) did it give?
Its value is 50.39 ± 25.73 pmol (mg protein)^−1 (μM0)^−1.

“acetyl-GRKKRRORRR-AHA-εKGC-amide(Tc^v-99m) trifluoroacetate [Example 2]” was tested. Which “net uptake under isoelectric conditions compared to control buffer” value ([1]; 130 mM K+/20 mM Cl− and 1 μg/ml valinomycin, data not shown) did it give?
Its value is “not decreased”.

And the “net accumulation in ice-cold buffer” value ([1]; 4° C., Jurkat cells)?
Its value is “only modestly inhibited”.

And the “time to approach plateau accumulation” value ([1]; Jurkat cells)?
The value was ≤ 2 min.

What about the “time plateau (quasi-steady state) was maintained” value ([1]; Jurkat cells continuously exposed to the complex) of the same compound?
Its value is “at least 1 hour”.

And the “Steady-state value of accumulation” value ([1]; Jurkat cells, n=4)?
The value was 116±3 fmol (mg protein)^−1 (nM0)^−1.

And the “20 min Uptake” value ([1]; Jurkat cells)?
Its value is 61.73 pmol (mg protein)^−1 (μM0)^−1.

And the in/out ratio ([1]; given a typical cell water space of 4 μl (mg protein)^−1)?
Its in/out ratio is ~30.

And the “extracellular concentration of half-maximal accumulation” value ([1]; plateau accumulation after 10 minutes, 7 nM to 8 μM, curve fitting)?
The value was ~3 µM.

And the “U/W Ratio” value ([1]; Jurkat cells)?
The value was 5.6.

And the cell accumulation complete ([1]; within 2 minutes, extracellular concentration of peptide 950 nM, Jurkat cells)?
The cell accumulation complete was 90%.

And the “30 min Washout” value [2]?
Its value is 10.99 pmol (mg protein)^−1 (μM0)^−1.

And the “residual level of peptide remaining in cells” value ([2]; slowly exchanging or retaining compartment after washout)?
Its value is < 10 % of peak activity.

What about the washout complete ([2]; within 20 minutes, preloaded Jurkat cells) of the same compound?
Its washout complete is ~90%.

“12l (RKKRRQRRR; not fully specified; biotin; AHA-K*GC chelator, amide) [Conjugate 12l]” was tested. Which “Jurkat Cell Uptake” value ([1]; Jurkat cells) did it give?
The value was 51.07 ± 11.78 pmol (mg protein)^−1 (μM0)^−1.

— patent US8038984B2, “Membrane-permeant peptide complexes for treatment of sepsis” (Washington University, priority 1998, dated 2011)
